One experiment concerns the target T1, human Nav1.5 (Homo sapiens, UniProt Q14524).
T1 construct: expressed in transfected cells
Put plainly: PatchXpress sodium current measurement, inactivated state block, Nav1.5. The conditions noted are these: determined by PatchXpress measurement, HEK 293 cells. The experiment is classed as cell-based. The method, then: (§1) Cell Based Assays for Nav 1.7 and Nav 1.5 Activity
(§2) Compounds were tested on human Nav1.7 and Nav1.5 channels stably expressed in HEK 293 cells.
(§3) Sodium Current Measurements on the PatchXpress 7000:
(§4) To measure inactivated state block of sodium channels, test compounds were characterized in an automated PatchXpress® assay (Molecular Devices) using a double-pulse protocol on human Nav1.7 and Nav1.5 channels stably expressed in HEK 293 cells. Cells were held at a potential 20 mV negative to the potential at which ˜50% of the channels are inactivated. A 8000 ms pre-pulse 7 mV positive to the potential at which ˜50% of the channels are inactivated was given followed by a hyperpolarizing 2 ms pulse to −120 mV and a 20 ms test pulse to −20 mV. The protocol was applied to cells in the absence, presence of compound and after washout. The temperature of PatchXpress® instruments was maintained at 22° C. The following recording solutions were used. Internal solution (mM): 30 CsCl, 5 HEPES, 10 EGTA, 120 CsF, 5 NaF, 2 MgCl2, pH 7.3 with CsOH. External solution (mM): 120 NMDG, 40 NaCl, 1 KCl, 0.5 MgCl2, 5 HEPES, 2.7 CaCl2, pH 7.5 with NMDG-OH. Estimated IC50 values were calculated based on at least two compound concentrations tested. For all electrophysiology experiments, offline analysis was used to correct for current rundown and to determine percent inhibition as a function of drug concentration. IC50 values were determined by fitting to the Hill equation.

A further experiment concerns the target T2, human Nav1.7 (Homo sapiens, UniProt Q15858).
T2 construct: expressed in transfected cells
The experiment in a line: PatchXpress sodium current measurement, inactivated state block, Nav1.7. In kind it is cell-based. The conditions noted are these: channels stably expressed in HEK 293 cells, double-pulse protocol, 22° C., read-out: potency for the Nav 1.7 sodium ion channel (1.7=). The method, then:
as §1, §2, §3, §4

T2 sequence (Q15858 whole entry): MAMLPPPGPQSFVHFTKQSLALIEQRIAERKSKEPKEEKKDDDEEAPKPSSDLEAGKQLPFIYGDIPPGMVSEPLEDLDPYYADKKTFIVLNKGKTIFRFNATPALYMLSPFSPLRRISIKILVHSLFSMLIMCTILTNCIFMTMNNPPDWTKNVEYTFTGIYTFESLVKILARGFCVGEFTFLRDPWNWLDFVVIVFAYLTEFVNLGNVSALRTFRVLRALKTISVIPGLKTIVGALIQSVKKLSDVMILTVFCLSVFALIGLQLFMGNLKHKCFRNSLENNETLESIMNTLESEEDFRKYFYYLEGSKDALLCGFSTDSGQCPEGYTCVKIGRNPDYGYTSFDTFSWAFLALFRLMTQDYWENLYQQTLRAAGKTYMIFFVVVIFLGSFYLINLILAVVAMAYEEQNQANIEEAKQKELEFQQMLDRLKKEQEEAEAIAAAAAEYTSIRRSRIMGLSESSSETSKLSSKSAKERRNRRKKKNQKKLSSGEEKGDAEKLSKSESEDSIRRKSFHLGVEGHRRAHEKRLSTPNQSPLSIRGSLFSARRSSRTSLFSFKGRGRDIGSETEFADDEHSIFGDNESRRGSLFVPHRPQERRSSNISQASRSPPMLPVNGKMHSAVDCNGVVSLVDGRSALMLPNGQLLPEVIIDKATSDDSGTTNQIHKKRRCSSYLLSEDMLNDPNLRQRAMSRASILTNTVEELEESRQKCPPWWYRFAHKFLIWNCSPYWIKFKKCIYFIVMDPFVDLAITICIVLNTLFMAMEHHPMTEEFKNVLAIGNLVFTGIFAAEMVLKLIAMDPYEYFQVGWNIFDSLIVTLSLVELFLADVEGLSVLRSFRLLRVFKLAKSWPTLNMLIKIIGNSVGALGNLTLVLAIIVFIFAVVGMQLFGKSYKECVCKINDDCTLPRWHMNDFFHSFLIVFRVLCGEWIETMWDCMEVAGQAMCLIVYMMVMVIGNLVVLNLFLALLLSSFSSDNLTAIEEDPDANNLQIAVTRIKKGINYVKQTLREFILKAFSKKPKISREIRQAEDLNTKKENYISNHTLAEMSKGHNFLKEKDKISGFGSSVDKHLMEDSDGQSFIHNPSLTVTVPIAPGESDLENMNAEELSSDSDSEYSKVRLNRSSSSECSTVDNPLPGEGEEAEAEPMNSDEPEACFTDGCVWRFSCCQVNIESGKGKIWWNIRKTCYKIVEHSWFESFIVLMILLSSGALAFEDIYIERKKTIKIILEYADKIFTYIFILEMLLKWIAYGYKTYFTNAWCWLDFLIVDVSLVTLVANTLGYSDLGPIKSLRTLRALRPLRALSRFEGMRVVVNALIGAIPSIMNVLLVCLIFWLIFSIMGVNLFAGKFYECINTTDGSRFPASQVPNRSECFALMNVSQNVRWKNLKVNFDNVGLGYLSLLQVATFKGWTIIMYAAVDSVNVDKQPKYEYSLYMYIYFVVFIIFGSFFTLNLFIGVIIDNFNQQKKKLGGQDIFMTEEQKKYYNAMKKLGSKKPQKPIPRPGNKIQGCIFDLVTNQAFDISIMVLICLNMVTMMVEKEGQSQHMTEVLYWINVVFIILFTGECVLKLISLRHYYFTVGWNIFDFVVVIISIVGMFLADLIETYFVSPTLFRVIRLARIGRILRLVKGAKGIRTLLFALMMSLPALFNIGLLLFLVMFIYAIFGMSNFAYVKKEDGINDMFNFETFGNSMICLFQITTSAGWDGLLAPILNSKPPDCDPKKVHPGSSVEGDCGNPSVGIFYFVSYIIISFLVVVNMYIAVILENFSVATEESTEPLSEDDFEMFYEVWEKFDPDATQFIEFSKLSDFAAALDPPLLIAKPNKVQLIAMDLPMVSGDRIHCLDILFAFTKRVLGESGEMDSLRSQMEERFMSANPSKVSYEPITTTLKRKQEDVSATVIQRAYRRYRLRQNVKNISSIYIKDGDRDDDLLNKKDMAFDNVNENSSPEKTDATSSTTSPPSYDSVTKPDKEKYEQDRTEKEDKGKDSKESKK
T1 sequence (Q14524 whole entry): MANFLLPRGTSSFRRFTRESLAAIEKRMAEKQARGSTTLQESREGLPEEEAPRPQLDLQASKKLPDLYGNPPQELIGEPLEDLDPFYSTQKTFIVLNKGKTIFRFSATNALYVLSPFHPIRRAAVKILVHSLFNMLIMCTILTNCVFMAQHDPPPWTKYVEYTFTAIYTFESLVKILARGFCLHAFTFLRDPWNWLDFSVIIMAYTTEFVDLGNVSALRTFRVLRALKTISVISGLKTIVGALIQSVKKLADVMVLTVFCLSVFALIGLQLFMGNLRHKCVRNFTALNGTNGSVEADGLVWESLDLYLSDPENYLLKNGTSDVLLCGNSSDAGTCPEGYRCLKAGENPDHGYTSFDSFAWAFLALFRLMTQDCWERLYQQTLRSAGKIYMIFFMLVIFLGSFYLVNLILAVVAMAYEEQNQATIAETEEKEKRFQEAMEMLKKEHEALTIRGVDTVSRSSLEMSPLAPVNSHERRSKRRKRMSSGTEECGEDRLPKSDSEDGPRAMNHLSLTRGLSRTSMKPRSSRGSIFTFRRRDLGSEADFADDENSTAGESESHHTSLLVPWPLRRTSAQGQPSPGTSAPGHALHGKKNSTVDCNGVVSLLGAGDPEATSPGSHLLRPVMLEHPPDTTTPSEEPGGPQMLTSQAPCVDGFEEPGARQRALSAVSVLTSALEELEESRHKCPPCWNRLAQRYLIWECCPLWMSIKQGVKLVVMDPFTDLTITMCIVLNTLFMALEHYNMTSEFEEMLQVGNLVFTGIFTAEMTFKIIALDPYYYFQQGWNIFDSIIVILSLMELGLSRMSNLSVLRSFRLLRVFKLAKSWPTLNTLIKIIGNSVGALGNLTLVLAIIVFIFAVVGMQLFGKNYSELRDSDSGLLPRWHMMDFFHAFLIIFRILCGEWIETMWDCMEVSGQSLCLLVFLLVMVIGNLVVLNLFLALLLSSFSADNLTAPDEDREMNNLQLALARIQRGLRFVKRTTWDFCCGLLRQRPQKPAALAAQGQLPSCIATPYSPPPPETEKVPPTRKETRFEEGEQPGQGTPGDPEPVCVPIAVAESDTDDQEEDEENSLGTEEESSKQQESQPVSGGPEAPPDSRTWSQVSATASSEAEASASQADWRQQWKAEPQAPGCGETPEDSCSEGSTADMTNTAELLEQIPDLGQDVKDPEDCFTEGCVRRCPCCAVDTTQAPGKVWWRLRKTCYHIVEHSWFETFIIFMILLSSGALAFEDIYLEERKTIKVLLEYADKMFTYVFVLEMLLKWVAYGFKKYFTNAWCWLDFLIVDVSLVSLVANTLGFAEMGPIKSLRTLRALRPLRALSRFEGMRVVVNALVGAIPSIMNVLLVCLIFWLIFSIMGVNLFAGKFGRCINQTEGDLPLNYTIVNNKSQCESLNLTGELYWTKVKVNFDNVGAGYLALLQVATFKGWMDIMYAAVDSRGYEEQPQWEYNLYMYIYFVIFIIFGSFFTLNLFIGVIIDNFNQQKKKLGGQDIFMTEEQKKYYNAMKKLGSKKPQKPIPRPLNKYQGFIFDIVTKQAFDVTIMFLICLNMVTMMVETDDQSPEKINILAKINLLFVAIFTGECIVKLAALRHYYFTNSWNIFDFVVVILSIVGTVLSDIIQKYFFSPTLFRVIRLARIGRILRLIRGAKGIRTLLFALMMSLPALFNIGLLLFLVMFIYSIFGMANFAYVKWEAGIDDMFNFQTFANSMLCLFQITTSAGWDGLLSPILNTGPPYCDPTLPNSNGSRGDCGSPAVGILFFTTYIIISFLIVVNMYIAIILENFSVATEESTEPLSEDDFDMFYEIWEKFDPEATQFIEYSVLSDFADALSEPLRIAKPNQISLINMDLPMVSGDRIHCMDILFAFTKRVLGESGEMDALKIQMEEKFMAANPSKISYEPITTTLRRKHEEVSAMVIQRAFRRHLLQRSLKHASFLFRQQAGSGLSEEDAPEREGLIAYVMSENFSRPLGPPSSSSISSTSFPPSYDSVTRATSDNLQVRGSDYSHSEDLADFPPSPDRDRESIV

Take `C[C@H](c1ccccc1C#C[C@H]1CCCC[C@H]1N)n1c(=O)oc2cc(S(=O)(=O)Nc3cccc(F)n3)c(F)cc21` [Ex8-3, 3-[(1R)-1-(2-{[(1R,2R)-2-aminocyclohexyl]ethynyl}phenyl)ethyl]-5-fluoro-N-(6-fluoropyridin-2-yl)-2-oxo-2,3-dihydro-1,3-benzoxazole-6-sulfonamide]: the “ratio of Nav 1.5:Nav 1.7 potency” value on human Nav1.5 is 2000. In addition, on human Nav1.7, the IC50 was found to be 14 nM.

Take `Cc1c(CCN)cccc1[C@@H](C)n1c(=O)oc2cc(S(=O)(=O)Nc3cccc(F)n3)c(F)cc21` [Ex19-12]: the “ratio of Nav 1.5:Nav 1.7 potency” value at human Nav1.5 was determined as 195. Also, the IC50 at human Nav1.7 worked out at 154 nM.

Consider `C[C@H](c1ccccc1C#CC(N)CO)n1c(=O)oc2cc(S(=O)(=O)Nc3cccc(F)n3)c(F)cc21` (stereo partly drawn) [Ex8-4, 3-{(1R)-1-[2-(3-amino-4-hydroxybut-1-yn-1-yl)phenyl]ethyl}-5-fluoro-N-(6-fluoropyridin-2-yl)-2-oxo-2,3-dihydro-1,3-benzoxazole-6-sulfonamide], for which the “ratio of Nav 1.5:Nav 1.7 potency” value at human Nav1.5 stood at 822. In addition, the IC50 on human Nav1.7 turned out to be 9 nM.

With `C[C@H](c1cccc(C#CCN2CCN(C)CC2)c1)n1c(=O)oc2cc(S(=O)(=O)Nc3cccc(F)n3)c(F)cc21` [Ex21-14, 5-fluoro-N-(6-fluoropyridin-2-yl)-3-[(1R)-1-{3-[3-(4-methylpiperazin-1-yl)prop-1-yn-1-yl]phenyl}ethyl]-2-oxo-2,3-dihydro-1,3-benzoxazole-6-sulfonamide], at human Nav1.5, the “ratio of Nav 1.5:Nav 1.7 potency” value came out at 134. For the same molecule, the IC50 on human Nav1.7 is 234 nM.

Turning to `Nc1ccc2c(c1)C(n1c(=O)oc3cc(S(=O)(=O)Nc4cccc(F)n4)c(F)cc31)CCC2` (stereo not drawn) [Ex4-4, 3-(7-Amino-1,2,3,4-tetrahydronaphthalen-1-yl)-5-fluoro-N-(6-fluoropyridin-2-yl)-2-oxo-2,3-dihydro-1,3-benzoxazole-6-sulfonamide], the “ratio of Nav 1.5:Nav 1.7 potency” value at human Nav1.5 is recorded as 166. Further, the IC50 on human Nav1.7 was 482 nM.

`C[C@H](c1ccccc1C#CCN)n1c(=O)oc2cc(S(=O)(=O)Nc3cccc(F)n3)c(F)cc21` [Ex8-1, (R)-3-(1-(2-(3-Aminoprop-1-yn-1-yl)phenyl)ethyl)-5-fluoro-N-(6-fluoropyridin-2-yl)-2-oxo-2,3-dihydrobenzo[d]oxazole-6-sulfonamide]: the “ratio of Nav 1.5:Nav 1.7 potency” value at human Nav1.5 was 546. For the same molecule, at human Nav1.7, the IC50 is 50 nM.

As to `C[C@H](c1cccc(C2=CCNCC2)c1)n1c(=O)oc2cc(S(=O)(=O)Nc3cccc(F)n3)c(F)cc21` [Ex7-10, 5-fluoro-N-(6-fluoropyridin-2-yl)-2-oxo-3-{(1R)-1-[3-(1,2,3,6-tetrahydropyridin-4-yl)phenyl]ethyl}-2,3-dihydro-1,3-benzoxazole-6-sulfonamide], the “ratio of Nav 1.5:Nav 1.7 potency” value at human Nav1.5 turned out to be 331. The IC50 at human Nav1.7 turned out to be 127 nM.

Turning to `C[C@H](c1cccc(C#CCNC2CCCCC2)c1)n1c(=O)oc2cc(S(=O)(=O)Nc3cccc(F)n3)c(F)cc21` [Ex21-6, 3-[(1R)-1-{3-[3-(cyclohexylamino)prop-1-yn-1-yl]phenyl}ethyl]-5-fluoro-N-(6-fluoropyridin-2-yl)-2-oxo-2,3-dihydro-1,3-benzoxazole-6-sulfonamide], the “ratio of Nav 1.5:Nav 1.7 potency” value at human Nav1.5 was found to be 27. Further, at human Nav1.7, the IC50 was 382 nM.

`Cc1cccc([C@@H](C)n2c(=O)oc3cc(S(=O)(=O)Nc4cccc(F)n4)c(F)cc32)c1C#C[C@@H]1CCCC[C@@H]1N` [Ex21-27, 3-[(1R)-1-(2-{[(1S,2S)-2-aminocyclohexyl]-ethynyl}-3-methylphenyl)ethyl]-5-fluoro-N-(6-fluoropyridin-2-yl)-2-oxo-2,3-dihydro-1,3-benzoxazole-6-sulfonamide]: the “ratio of Nav 1.5:Nav 1.7 potency” value on human Nav1.5 stood at 476. At human Nav1.7, the IC50 was found to be 32 nM.

As for `Cc1cc2c(cc1S(=O)(=O)Nc1cccc(F)n1)oc(=O)n2[C@H](C)c1cccc(C#CCN2CCC2)c1` [Ex21-20, 3-[(1R)-1-{3-[3-(azetidin-1-yl)prop-1-yn-l-yl]phenyl}ethyl]-N-(6-fluoropyridin-2-yl)-5-methyl-2-oxo-2,3-dihydro-1,3-benzoxazole-6-sulfonamide], the “ratio of Nav 1.5:Nav 1.7 potency” value at human Nav1.5 turned out to be 30. The IC50 on human Nav1.7 amounted to 200 nM.

As for `C[C@H](c1cccc(C#CC2CCCCN2)c1)n1c(=O)oc2cc(S(=O)(=O)Nc3cccc(F)n3)c(F)cc21` (stereo partly drawn) [Ex21-9, 5-fluoro-N-(6-fluoropyridin-2-yl)-2-oxo-3-{(1R)-1-[3-(piperidin-2-ylethynyl)phenyl]ethyl}-2,3-dihydro-1,3-benzoxazole-6-sulfonamide], the “ratio of Nav 1.5:Nav 1.7 potency” value on human Nav1.5 is 74. Moreover, the IC50 on human Nav1.7 came to 407 nM.

Regarding `Cc1cc2c(cc1S(=O)(=O)Nc1cccc(F)n1)oc(=O)n2[C@H](C)c1cccc(Br)c1` [Ex18-6, 3-[(1R)-1-(3-bromophenyl)ethyl]-N-(6-fluoropyridin-2-yl)-5-methyl-2-oxo-2,3-dihydro-1,3-benzoxazole-6-sulfonamide], at human Nav1.5, the “ratio of Nav 1.5:Nav 1.7 potency” value is listed as 30. For the same molecule, the IC50 at human Nav1.7 is 57 nM.

For `Cc1cc2c(cc1S(=O)(=O)Nc1cccc(F)n1)oc(=O)n2Cc1cccc2c1CC(N)CC2` (single isomer, unassigned) [Ex17-5, (R or S)-3-[(7-amino-5,6,7,8-tetrahydronaphthalen-1-yl)methyl]-N-(6-fluoropyridin-2-yl)-5-methyl-2-oxo-2,3-dihydro-1,3-benzoxazole-6-sulfonamide], the “ratio of Nav 1.5:Nav 1.7 potency” value on human Nav1.5 was determined as 310. For the same molecule, the IC50 at human Nav1.7 came to 24 nM.

With `C[C@H](c1ccccc1C#CCN1CCC1)n1c(=O)oc2cc(S(=O)(=O)Nc3cccc(F)n3)c(F)cc21` [Ex8-10, 3-{(1R)-1-[2-(3-azetidin-1-ylprop-1-yn-1-yl)phenyl]ethyl}-5-fluoro-N-(6-fluoropyridin-2-yl)-2-oxo-2,3-dihydro-1,3-benzoxazole-6-sulfonamide], the “ratio of Nav 1.5:Nav 1.7 potency” value on human Nav1.5 is 127. Further, the IC50 at human Nav1.7 was determined as 236 nM.

For the molecule `C[C@H](c1cccc(C#C[C@@H]2CCCC[C@@H]2N)c1)n1c(=O)oc2cc(S(=O)(=O)Nc3cccc(F)n3)c(F)cc21` [Ex21-17, 3-[(1R)-1-(3-{[(1S,2S)-2-aminocyclohexyl]ethynyl}phenyl)ethyl]-5-fluoro-N-(6-fluoropyridin-2-yl)-2-oxo-2,3-dihydro-1,3-benzoxazole-6-sulfonamide], the “ratio of Nav 1.5:Nav 1.7 potency” value at human Nav1.5 was 41. In addition, on human Nav1.7, the IC50 was determined as 68 nM.

With `C[C@H](c1cccc(C#CCN2CCC2)c1)n1c(=O)oc2cc(S(=O)(=O)Nc3cccc(F)n3)c(F)cc21` [Ex21-13, 3-[(1R)-1-{3-[3-(azetidin-1-yl)prop-1-yn-1-yl]phenyl}ethyl]-5-fluoro-N-(6-fluoropyridin-2-yl)-2-oxo-2,3-dihydro-1,3-benzoxazole-6-sulfonamide], the “ratio of Nav 1.5:Nav 1.7 potency” value on human Nav1.5 came to 258. The IC50 at human Nav1.7 came to 116 nM.

Take `C[C@H](c1ccccc1C#CC1(N)CCCCC1)n1c(=O)oc2cc(S(=O)(=O)Nc3cccc(F)n3)c(F)cc21` [Ex8-6, 3-[(1R)-1-{2-[(1-aminocyclohexyl)ethynyl]phenyl}ethyl]-5-fluoro-N-(6-fluoropyridin-2-yl)-2-oxo-2,3-dihydro-1,3-benzoxazole-6-sulfonamide]: the “ratio of Nav 1.5:Nav 1.7 potency” value at human Nav1.5 was 95. Further, on human Nav1.7, the IC50 came to 49 nM.

For the molecule `C[C@H](c1ccccc1C#CCN1CCCC1)n1c(=O)oc2cc(S(=O)(=O)Nc3cccc(F)n3)c(F)cc21` [Ex8-2, 5-fluoro-N-(6-fluoropyridin-2-yl)-2-oxo-3-{(1R)-1-[2-(3-pyrrolidin-1-ylprop-1-yn-1-yl)phenyl]ethyl}-2,3-dihydro-1,3-benzoxazole-6-sulfonamide], the “ratio of Nav 1.5:Nav 1.7 potency” value on human Nav1.5 is 23. In addition, the IC50 at human Nav1.7 is 434 nM.

Turning to `Cl.NC1CCc2cccc(Cn3c(=O)oc4cc(S(=O)(=O)Nc5cccc(F)n5)c(F)cc43)c2C1` (single isomer, unassigned) [Ex13-4, (S or R)-3-((7-Amino-5,6,7,8-tetrahydronaphthalen-1-yl)methyl)-5-fluoro-N-(6-fluoropyridin-2-yl)-2-oxo-2,3-dihydrobenzo[d]oxazole-6-sulfonamide hydrochloride], on human Nav1.5, the “ratio of Nav 1.5:Nav 1.7 potency” value is 304. In addition, at human Nav1.7, the IC50 was 89 nM.

Turning to `C[C@H](c1ccccc1CN(C)C)n1c(=O)oc2cc(S(=O)(=O)Nc3cccc(F)n3)c(F)cc21` [Ex9-2, 3-[(1R)-1-{2-[(dimethylamino)methyl]phenyl}ethyl]-5-fluoro-N-(6-fluoropyridin-2-yl)-2-oxo-2,3-dihydro-1,3-benzoxazole-6-sulfonamide], the “ratio of Nav 1.5:Nav 1.7 potency” value on human Nav1.5 was found to be 84. Moreover, the IC50 at human Nav1.7 came out at 124 nM.

In the case of `C[C@H](c1ccccc1C1=CCC(N)CC1)n1c(=O)oc2cc(S(=O)(=O)Nc3cccc(F)n3)c(F)cc21` (stereo partly drawn) [Ex7-6, 3-{(1R)-1-[2-(4-aminocyclohex-1-en-1-yl)phenyl]ethyl}-5-fluoro-N-(6-fluoropyridin-2-yl)-2-oxo-2,3-dihydro-1,3-benzoxazole-6-sulfonamide], the “ratio of Nav 1.5:Nav 1.7 potency” value on human Nav1.5 is reported as 123. Moreover, the IC50 at human Nav1.7 was 460 nM.

(Values after patent US9624208B2, “Benzoxazolinone compounds with selective activity in voltage-gated sodium channels” (Merck Sharp & Dohme Corp., priority 2012, dated 2017).)
